# Counter-ions that a name gives are not always drawn. Like-named read-outs stand apart in the source and are kept apart here.
# Legend:
# Format in all cases: biochemical
# human factor Xa = target: T1, human factor Xa (Homo sapiens, UniProt P00742); test: Inhibition of Factor Xa hydrolysis of chromogenic substrate S2222 (Ki); conditions: purified human factor Xa, 0.10 M sodium phosphate buffer; for Ki values for inhibition of Serine Proteases: Factor Xa: pH 7.5
# T1 construct: 0.2-0.5 nM human thrombin or human factor Xa; purchased Enzyme Research Laboratories, South Bend, Ind
# Method: (§1) The effectiveness of compounds of the present invention as inhibitors of blood coagulation proteases was determined using purified human proteases and synthetic substrates following procedures similar to those described in Kettner et al. (1990).
# (§2) For these assays, the rate of enzymatic (thrombin, Factor Xa, and Factor VIIa) hydrolysis of chromogenic substrates (S2238 (H-D-Phe-Pip-Arg-pNA), S2222, and S2288, respectively; Kabi Pharmacia, Franklin, Ohio) was measured both in the absence and presence of compounds of the present invention. […] A decrease in the rate of absorbance change at 405 nm in the presence of inhibitor is indicative of enzyme inhibition. The results of this assay are expressed as inhibitory constant, Ki.
# (§3) Thrombin and Xa determinations were made in 0.10 M sodium phosphate buffer, pH 7.5, containing 0.20 M NaCl, and 0.5% PEG 8000. VIIa determinations were made in 0.05 M tris buffer, pH 7.6, containing 0.10 M NaCl, 4 mM CaCl2, and 0.1% bovine serum albumin.
# (§4) Reactions were allowed to go for 30 minutes and the velocities (rate of absorbance change vs time) were measured in the time frame of 25-30 minutes. The following relationship was used to calculate Ki values. [formula] where: vo is the velocity of the control in the absence of inhibitor;
# (§5) vs is the velocity in the presence of inhibitor;
# (§6) I is the concentration of inhibitor;
# (§7) Ki is the dissociation constant of the enzyme: inhibitor complex;
# (§8) S is the concentration of substrate;
# (§9) Km is the Michaelis constant.
# human factor VIIa = target: T2, human factor VIIa (Homo sapiens, UniProt P08709); test: Inhibition of Factor VIIa hydrolysis of chromogenic substrate S2288 (Ki); conditions: purified human factor VIIa, 0.05 M tris buffer; for Ki values for inhibition of Serine Proteases: Factor VIIa: pH 7.6; for Ki: pH 7.6, read-out: Ki values for inhibition of Serine Proteases: Factor VIIa
# T2 construct: 50 nM human factor VIIa (BiosPacific, Emeryville, Calif.); purchased BiosPacific, Emeryville, Calif
# T2 sequence (P08709 213-466 limits assumed): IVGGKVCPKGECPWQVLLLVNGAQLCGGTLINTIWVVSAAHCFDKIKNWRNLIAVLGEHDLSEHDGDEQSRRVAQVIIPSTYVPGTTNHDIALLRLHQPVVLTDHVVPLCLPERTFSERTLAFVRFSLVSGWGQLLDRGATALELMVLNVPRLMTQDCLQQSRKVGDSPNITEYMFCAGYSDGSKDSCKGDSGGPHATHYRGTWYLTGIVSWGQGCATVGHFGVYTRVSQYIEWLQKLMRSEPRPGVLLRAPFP
# T2 sequence (P08709 61-212 partner limits assumed): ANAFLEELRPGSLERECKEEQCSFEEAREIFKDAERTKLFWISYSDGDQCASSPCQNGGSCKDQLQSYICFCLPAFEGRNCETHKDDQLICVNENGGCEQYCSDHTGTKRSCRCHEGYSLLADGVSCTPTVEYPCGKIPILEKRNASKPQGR
# Method: as §1, §2, §3, §4, §5, §6, §7, §8, §9
# human thrombin = human thrombin (Homo sapiens, UniProt P00734); test: Inhibition of thrombin hydrolysis of chromogenic substrate S2238 (Ki); parameters: 0.2-0.5 nM human thrombin or human factor Xa; purchased Enzyme Research Laboratories, South Bend, Ind; conditions: purified human thrombin, 0.10 M sodium phosphate buffer, pH 7.5, read-out: Ki values for inhibition of Serine Proteases: Trombin
# Method: as §1, §2, §3, §4, §5, §6, §7, §8, §9
# [1] = pH 7.5, read-out: Ki values for inhibition of Serine Proteases: Factor Xa
# T1 sequence (P00742 235-488 limits assumed): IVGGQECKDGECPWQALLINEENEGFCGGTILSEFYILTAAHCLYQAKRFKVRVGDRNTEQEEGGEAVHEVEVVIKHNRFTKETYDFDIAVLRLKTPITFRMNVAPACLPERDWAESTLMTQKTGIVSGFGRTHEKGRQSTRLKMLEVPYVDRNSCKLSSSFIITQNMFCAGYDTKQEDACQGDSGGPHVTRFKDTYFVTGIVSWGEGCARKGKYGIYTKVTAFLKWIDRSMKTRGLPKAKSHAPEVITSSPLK
# T1 sequence (P00742 41-179 partner limits assumed): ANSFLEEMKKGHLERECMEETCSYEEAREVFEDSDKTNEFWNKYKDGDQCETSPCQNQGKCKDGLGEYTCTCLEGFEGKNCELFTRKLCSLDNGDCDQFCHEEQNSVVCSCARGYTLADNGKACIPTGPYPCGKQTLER
Ki (human factor Xa; [1]),Ki values for inhibition of Serine Proteases: Factor VIIa (human factor VIIa),Ki (human thrombin),Ki (human factor VIIa),Ki values for inhibition of Serine Proteases: Factor Xa (human factor Xa),"Ki (human factor Xa; pH 7.5, HCl, read-out: Ki values for inhibition of Serine Proteases: Factor Xa)",Compound
< 50 µM,Inactive,< 50 µM,,,,Hydrocinnamoyl-Sar-Lys--C(=O)--O--(CH2)2--NH2 2 HCl [Example 61.1.3]
< 0.5 µM,,< 0.5 µM,< 0.5 µM,,,(2-(2-Cyano)-Thiophenyl)-Benzoyl-Sar-boroOrn(CH=NH)-C10H16 HCl [Example 62.4.1]
< 0.5 µM,,< 0.5 µM,< 50 µM,,,"CC1(C)C2CC3OB(C(CCCCN)NC(=O)CN(CCc4cccc(C(F)(F)F)c4)C(=O)CCc4ccccc4)OC3(C)C1C2 (stereo not drawn) [Example 51.1.1, Hydrocinnamoyl-[N-(3-(Trifluoromethyl)-Phenethyl)-Gly]-boroLys--C10H16 HCl]"
< 50 µM,inactive,< 50 µM,,,,Pinanediol N-{N-methyl-N-[2-(Thiophenyl)-Benzoyl]Sar}-1-amido-5-thiocyanatobutane boronate [Example 63.5.1]
< 50 µM,,< 0.5 µM,< 0.5 µM,,,"CC1(C)C2CC3OB(C(CCCCN)NC(=O)CN(CCc4ccccc4C4CCCC4)C(=O)CCc4ccccc4)OC3(C)C1C2 (stereo not drawn) [Example 54.3.2, Hydrocinnamoyl-[N-(2-(Cyclopentyl)-Phenethyl)-Gly]-boroLys-C10H16 HCl]"
< 50 µM,,< 0.5 µM,< 50 µM,,,"CC(C)(CC(=O)O)CC(=O)N(CCc1ccccc1)CC(=O)NC(CCCCN)B1OC2CC3CC(C3(C)C)C2(C)O1 (stereo not drawn) [Example 67.1.2, Glutaryl(3,3-Dimethyl)-[N-(Phenethyl)-Gly]-boroLys-C10H16]"
< 50 µM,,< 0.5 µM,< 0.5 µM,,,"CCC(CC)(CN(CC(=O)NC(CCCCN)B1OC2CC3CC(C3(C)C)C2(C)O1)C(=O)CCc1ccccc1)c1ccccc1 (stereo not drawn) [Example 54.1.3, Hydrocinnamoyl-[N-(2,2-(Diethyl)-Phenethyl)-Gly]-boroLys-C10H16 HCl]"
< 0.5 µM,,< 0.5 µM,< 0.5 µM,,,"CN(CC(=O)NC(CCCSC(=N)N)B1OC2CC3CC(C3(C)C)C2(C)O1)C(=O)c1ccccc1Sc1ccccc1C#N (stereo not drawn) [Example 62.1.3, (2-(2-Cyano)-Thiophenyl)-Benzoyl-Sar-boroIrg-C10H16 HBr]"
,Inactive,< 50 µM,,Inactive,,"CN(CC(=O)NC(CO)CCCCNC(=O)OCc1ccccc1)C(=O)CCc1ccccc1 (stereo not drawn) [Example 61.3.2, Hydrocinnamoyl-Sar-NHCH(CH20H)(CH2)4--NH(Z)]"
< 50 µM,,< 50 µM,< 50 µM,,,CN(CC(=O)NC(CCCN=[N+]=[N-])B1OC2CC3CC(C3(C)C)C2(C)O1)C(=O)c1ccccc1Sc1ccccc1C#N (stereo not drawn) [Example 62.2.1]
,Inactive,< 50 µM,,Inactive,,Hydrocinnamoyl-Sar-Lys(Z)--C(=O)--O-(CH2)2--NH(Z) [Example 61.1.2]
< 50 µM,,< 0.5 µM,< 50 µM,,,"CC(C)(C)OC(=O)NC(CCC(=O)O)C(=O)N(CCc1ccccc1)CC(=O)NC(CCCCN)B(O)O (stereo not drawn) [Example 68.2.1, Boc-Glu-[N-(Phenethyl)-Gly]-boroLys--OH]"
< 50 µM,,< 50 µM,< 50 µM,,,CN(CC(=O)NC(CCCBr)B1OC2CC3CC(C3(C)C)C2(C)O1)C(=O)c1ccccc1Sc1ccccc1C#N (stereo not drawn) [Example 62.1.1]
< 0.5 µM,,< 0.5 µM,< 0.5 µM,,,"CC1(C)C2CC3OB(C(CCCNC(=N)N)NC(=O)CN(CCc4ccccc4C4CC4)C(=O)CCc4ccccc4)OC3(C)C1C2 (stereo not drawn) [Example 56.1.2, Hydrocinnamoyl-[N-(2-(Cyclopropyl)-Phenethyl)--Gly]-boroArg-C10H16 HCl]"
< 50 µM,,< 50 µM,< 50 µM,,,Hydrocinnamoyl-Sar-Lys--C(=O)--OCH3 HCl [Example 61.2.1]
< 0.5 µM,,< 0.5 µM,< 0.5 µM,,,"CN(CC(=O)NC(CCCCN)B1OC2CC3CC(C3(C)C)C2(C)O1)C(=O)c1ccccc1Cc1cccc(Cl)c1 (stereo not drawn) [Example 64.2.3, 2-(3-chlorobenzyl)-benzoyl-Sar-Borolys C10 H16.HCl]"
< 0.5 µM,,< 0.5 µM,< 0.5 µM,,,"CN(CC(=O)NC(CCCNC(=N)N)B1OC2CC3CC(C3(C)C)C2(C)O1)C(=O)c1ccccc1Sc1ccccc1C#N (stereo not drawn) [Example 62.3.3, 2-(2-cyanothiophenyl)-benzoyl-Sar-BoroArg C10 H16.HCl]"
< 0.5 µM,,< 0.5 µM,< 50 µM,,,"NCCCCC(NC(=O)CN(CCc1cccc(C(F)(F)F)c1)C(=O)CCc1ccccc1)B(O)O (stereo not drawn) [Example 52.1.1, Hydrocinnamoyl-[N-(3-(Trifluoromethyl)-Phenethyl)-Gly]-boroLys--OH HCl]"
< 0.5 µM,,< 0.5 µM,< 0.5 µM,,,"Hydrocinnamoyl-[N-(2,2-(Dimethyl)-Phernethyl)-Gly]-boroOrn(CH=NH)-C10H16 HCl [Example 58.1.1]"
,Inactive,< 50 µM,,Inactive,,"CN(CC(=O)NC(CO)CCCCN)C(=O)CCc1ccccc1 (stereo not drawn) [Example 61.3.1, Hydrocinnamoyl-Sar-NHCH(CH20H)(CH2)4--NH2]"
,,< 0.5 µM,< 0.5 µM,,< 50 µM,"CC(C)(CN(CC(=O)NC(CCCCN)B(O)O)C(=O)CCc1ccccc1)c1ccccc1 (stereo not drawn) [Example 59.1.1, Hydrocinnamoyl-[N-(2,2-(Dimethyl)-Phenethyl)-Gly]-boroLys--OH HCl]"
< 50 µM,,< 0.5 µM,< 0.5 µM,,,"CC(=O)N(CC(=O)NC(CCCCN)B1OC2CC3CC(C3(C)C)C2(C)O1)Cc1ccccc1Cc1ccccc1 (stereo not drawn) [Example 64.1.2, Acetyl-Gly[N-(2-(Benzyl)-Benzyl)]-boroLys-C10H16 HCl]"
< 50 µM,,< 50 µM,< 50 µM,,,CN(CC(=O)NC(CCCCBr)B1OC2CC3CC(C3(C)C)C2(C)O1)C(=O)c1ccccc1Sc1ccccc1C#N (stereo not drawn) [Example 62.1.2]
< 0.5 µM,,< 0.5 µM,< 50 µM,,,"COC(=O)CC(C)(C)CC(=O)N(CCc1ccccc1)CC(=O)NC(CCCCN)B1OC2CC3CC(C3(C)C)C2(C)O1 (stereo not drawn) [Example 67.1.3, Methyl Glutaryl(3,3-Dimethyl)-[N-(Phenethyl)-Gly]-boroLys-C10H16 HCl]"
< 0.5 µM,,< 0.5 µM,< 50 µM,,,[3-(Trifluoromethyl)-Benzyl]-Benzoyl-Sar-boroLys-C10H16 HCl [Example 64.2.2]
< 0.5 µM,,< 0.5 µM,< 50 µM,,,"CN(CC(=O)NC(CCCSC(=N)N)B1OC2CC3CC(C3(C)C)C2(C)O1)C(=O)c1ccccc1Sc1ccccc1 (stereo not drawn) [Example 63.1.3, 2-(Thiophenyl)-Benzoyl-Sar-boroIrg-C10H16 HBr]"
< 50 µM,,< 0.5 µM,< 50 µM,,,"CC(C)(CN(CC(=O)NC(CCCN)B1OC2CC3CC(C3(C)C)C2(C)O1)C(=O)CCc1ccccc1)c1ccccc1 (stereo not drawn) [Example 60.3.3, Hydrocinnamoyl-[N-(2,2-(Dimethyl)-Phenethyl)-Gly]-boroOrn-C10H16 HCl]"
< 50 µM,,< 0.5 µM,< 50 µM,,,Hydrocinnamoyl-Sar-Lys[C(O)CO2 H] [Example 61.1.1]
< 0.5 µM,,< 0.5 µM,< 50 µM,,,"CN(CC(=O)NC(CCCCNC(=N)N)B1OC2CC3CC(C3(C)C)C2(C)O1)C(=O)c1ccccc1Sc1ccccc1C#N (stereo not drawn) [Example 62.3.2, (2-(2-Cyano)-Thiophenyl)-Benzoyl-Sar-borohomoArg-C10H16 HCl]"

# — patent US6060462A, “Electrophilic peptide analogs as inhibitors of trypsin-like enzymes” (DuPont Pharmaceuticals Company, priority 1997, dated 2000)
